# pEC50: −log10 of the molar value.
# Experiments:
# Human M4 = molecular target: T1, Human M4 (Homo sapiens, UniProt P08173); experiment: mAChR M4 cell-based functional assay (calcium flux, potentiation of EC20 acetylcholine response); settings: for Emax at 30 µM / Emax: % ACh maximum at 30 μM, human M4; for pEC50: CHO-K1 cells with human M4 and Gqi5, increase in EC20 acetylcholine response
# T1 construct: expressed in transfected cells
# T1 sequence (P08173 1-479): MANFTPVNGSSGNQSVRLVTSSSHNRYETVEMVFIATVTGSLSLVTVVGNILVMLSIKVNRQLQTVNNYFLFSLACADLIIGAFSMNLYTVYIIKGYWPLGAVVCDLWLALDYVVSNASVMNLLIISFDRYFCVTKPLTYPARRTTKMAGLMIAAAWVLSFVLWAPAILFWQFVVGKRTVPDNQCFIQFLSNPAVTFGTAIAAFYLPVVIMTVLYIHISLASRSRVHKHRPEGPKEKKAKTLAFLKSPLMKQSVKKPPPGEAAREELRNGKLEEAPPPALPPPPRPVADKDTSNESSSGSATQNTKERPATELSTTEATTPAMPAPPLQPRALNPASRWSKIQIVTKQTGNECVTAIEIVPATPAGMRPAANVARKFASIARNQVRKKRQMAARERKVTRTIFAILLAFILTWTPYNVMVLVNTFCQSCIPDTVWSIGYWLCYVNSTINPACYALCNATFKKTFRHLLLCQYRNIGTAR
# male Sprague-Dawley rats = experiment: Reversal of amphetamine-induced hyperlocomotion in rats; format: in vivo, rat; settings: 10 mg/kg p.o.
# Description: Drugs: d-Amphetamine hemisulfate was obtained from Sigma (St. Louis, Mo.). Salt-correction was used to determine the correct amount of the d-amphetamine hemisulfate form in milligrams to add to sterile water in order to yield a 0.75 mg/mL solution, which would be dosed at 1 mL/kg body weight of each animal. […] The solutions were formulated so that animals were injected with a volume equal to 10 mL/kg body weight for all compounds. The appropriate amount according to the dosage was mixed in 10% Tween 80 (Sigma) 90% sterile water. The mixtures were then vortexed and stored in a 39° C. sonication bath for 1 hour, until in a microsuspension (except for the highest dose, which was a suspension).
# Animals: Male Sprague-Dawley rats weighing 239-300 grams and averaging 265 g (Harlan, Inc., Indianapolis, Ind.) were used. They were housed in the animal care facility certified by the American Association for the Accreditation of Laboratory Animal Care (AALAC) under a 12-hour light/dark cycle (lights on: 6 a.m.; lights off: 6 p.m.) and had free access to food and water. The animals used in this experiment were food-deprived the evening before experimentation for oral dosing of compound/vehicle. The experimental protocols performed during the light cycle were approved by the Institutional Animals Care and Use Committee of Vanderbilt University and conformed to the guidelines established by the National Research Council Guide for the Care and Use of Laboratory Animals.
# Amphetamine-induced Hyperlocomotion: Male Harlan Sprague Dawley rats were habituated in Smart Open Field locomotor activity test chambers (Hamilton-Kinder, San Diego, Calif.) with 16×16 photo beams to automatically record locomotor activity. […] They were monitored for an additional 30 minutes and then injected subcutaneously with vehicle or […] amphetamine. Animals were then monitored for an additional 60 minutes, for a total of 120 minutes. Data were expressed as changes in ambulation defined as total number of beam breaks per 5 minute interval. […]
# Data Analysis: Behavioral data were analyzed using a two-way ANOVA with main effects of treatment and time. […] In addition, the total number of beam breaks from the amphetamine administration (65 min) to the end of the study (120 min) was calculated and graphed. Percent Reversal was calculated as follows using Microsoft Excel: In each animal, total ambulation from t=65 to t=120 was summed. The mean of each sum was calculated in the VAMP group. Then, for each animal, Percent Reversal was calculated with the following formula: Percent Reversal=100−{[(total ambulation in each animal from t=65 to t=120)/(mean of each sum from t=65 to t=120 in VAMP group)]*100}. The mean Percent Reversal, as well as the standard error, was calculated for each dose group using GraphPad Prism V5.04.
Emax at 30 µM (Human M4),pEC50 (Human M4),Emax (Human M4),Molecule,percent reversal of amphetamine-induced hyperlocomotion (male Sprague-Dawley rats)
65%,6.00,–,"Cc1nc(C2CC2)nc2sc3c(N4CCCC4)nccc3c12 [Compound 38, 2-cyclopropyl-4-methyl-8-pyrrolidin-1-yl-pyrido[4,5]thieno[1,2-d]pyrimidine]",–
66.7%,6.13,–,"Cc1nc(C)c2c(n1)sc1c(NCc3ccc(C(C)(C)O)cc3)ncc(C#N)c12 [Compound 46, 8-((4-(2-hydroxypropan-2-yl)benzyl)amino)-2,4-dimethylpyrido[4′,3′:4,5]thieno[2,3-d]pyrimidine-5-carbonitrile]",–
88.1%,6.22,–,"CCc1nc(C)c2c(n1)sc1c(NCc3ccc(C(C)(C)O)cc3)nccc12 [Compound 34, 2-[4-[[(2-ethyl-4-methyl-pyrido[4,5]thieno[1,2-b]pyrimidin-8-yl)amino]methyl]phenyl]propan-2-ol]",–
66.4%,< 5.00,–,"Cc1nc(CC(C)C)nc2sc3c(NCc4ccc(C(C)(C)O)cc4)nccc3c12 [Compound 36, 2-[4-[[(2-isobutyl-4-methyl-pyrido[4,5]thieno[1,2-b]pyrimidin-8-yl)amino]methyl]phenyl]propan-2-ol]",–
55%,< 5.00,–,"Cc1nc(C2CC2)nc2sc3c(N4CCCCC4)nccc3c12 [Compound 37, 2-cyclopropyl-4-methyl-8-(1-piperidyl)pyrido[4,5]thieno[1,2-d]pyrimidine]",–
91.9%,5.48,–,"Cc1nc(C)c2c(n1)sc1c(NCc3ccc(C(C)(C)O)cc3)ncc(Cl)c12 [Compound 41, 2-(4-(((5-chloro-2,4-dimethylpyrido[4′,3′:4,5]thieno[2,3-d]pyrimidin-8-yl)amino)methyl)phenyl)propan-2-ol]",–
86.4%,5.64,–,"Cc1nc(C2CC2)nc2sc3c(NCc4ccc(C(C)(C)O)c(F)c4)nccc3c12 [Compound 27, 2-[4-[[(2-cyclopropyl-4-methyl-pyrido[4,5]thieno[1,2-d]pyrimidin-8-yl)amino]methyl]-2-fluoro-phenyl]propan-2-ol]",–

# The next lines start with the molecule.
Molecule,Emax at 30 µM (Human M4),pEC50 (Human M4),Emax (Human M4),percent reversal of amphetamine-induced hyperlocomotion (male Sprague-Dawley rats)
"Cc1nc(C)c2c(n1)sc1c(NCc3ccc(C4(O)CCC4)cc3)ncnc12 [Compound 6, 1-(4-(((7,9-dimethylthieno[2,3-d:4,5-d′]dipyrimidin-4-yl)amino)methyl)phenyl)cyclobutan-1-ol]",81.3%,5.69,–,–
"5-chloro-N-[(3-fluoro-4-methoxy-phenyl)methyl]-2,4-dimethyl-pyrido[4,5]thieno[1,2-b]pyrimidin-8-amine [Compound 42]",–,6.14,60.5%,–
"Cc1nc(C)c2c(n1)sc1c(N3CCC(F)(F)CC3)ncnc12 [Compound 21, 4-(4,4-difluoropiperidin-1-yl)-7,9-dimethylthieno[2,3-d:4,5-d′]dipyrimidine]",52.6%,5.85,–,–
"Cc1nnc2sc(C(=O)NCc3ccc(S(=O)(=O)C(F)(F)F)cc3)c(N)c2c1C [VU0467154-9A, 5-amino-3,4-dimethyl-N-(4-((trifluoromethyl)sulfonyl)benzyl)thieno[2,3-c]pyridazine-6-carboxamide, reference compound]",–,–,–,55.0%
"Cc1nc(C)c2c(n1)sc1c(N3CCCC3)nccc12 [Compound 11, 2,4-Dimethyl-8-(pyrrolidin-1-yl)pyrido[4′,3′:4,5]thieno[2,3-d]pyrimidine]",77%,7.14,–,–
"Cc1nc(C)c2c(n1)sc1c(N3CCCC3)ncnc12 [Compound 2, 7,9-dimethyl-4-(pyrrolidin-1-yl)thieno[2,3-d:4,5-d′]dipyrimidine]",51.7%,6.54,–,–
"CCN(CC)c1nccc2c1sc1nc(C)nc(C)c12 [Compound 24, N,N-diethyl-2,4-dimethyl-pyrido[4,5]thieno[1,2-b]pyrimidin-8-amine]",37.7%,< 5.00,–,–
"Cc1nc(C)c2c(n1)sc1c(N3CCC3)ncnc12 [Compound 16, 4-(azetidin-1-yl)-7,9-dimethylthieno[2,3-d:4,5-d′]dipyrimidine]",59.9%,5.84,–,–
"Cc1nc(C)c2c(n1)sc1c(N3CC4CC4C3)ncnc12 (stereo not shown) [Compound 8, 4-(3-azabicyclo[3.1.0]hexan-3-yl)-7,9-dimethylthieno[2,3-d:4,5-d′]dipyrimidine]",75.5%,6.81,–,–
"Cc1nc(C)c2c(n1)sc1c(NCc3ccc(C(C)(C)O)cc3)nccc12 [Compound 14, 2-(4-(((2,4-dimethylpyrido[4′,3′:4,5]thieno[2,3-d]pyrimidin-8-yl)amino)methyl)phenyl)propan-2-ol]",80.5%,–,–,–
"5-chloro-2,4-dimethyl-8-pyrrolidin-1-yl-pyrido[4,5]thieno[1,2-b]pyrimidine [Compound 45]",–,6.16,60.9%,–

# — patent publication US10736898B2, “Positive allosteric modulators of the muscarinic acetylcholine receptor M4” (Vanderbilt University, priority 2017, dated 2020)
